Measured values reported in ChEMBL document CHEMBL1201862, “PubChem BioAssay data set” (2004).
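Interpolation was linear, between the two tested concentrations surrounding the appropriate level; five concentrations were tested over 48 hours in 96-well plates. GI50 marks 50% less growth.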 The source made the active and inactive calls. Rule as the data show it: active = GI50 up to about 1.1 µM and inactive = higher. Starred links: 1 amine or outer side, 2 acyl side, 3 side chain; linkers in the order of their positions; H or OH if unused. Positions of bridges follow the written chain, without caps; N, C: chain ends. Non-standard residues stand in square brackets, D forms with d. Residues, ends and D or L forms follow the SMILES beside them. Chains are numbered I, II in the order given. Actinocin(9to1) = Cc1c2oc3c(C)ccc(C(=O)[*:1])c3nc-2c(C(=O)[*:2])c(N)c1=O; NMeV = CN[CH](C(=O)O)C(C)C; Sar = CNCC(=O)O

Columns and labels:
Test in all cases: inhibition of tumour cell growth, NCI panel, 48 h
A498 = tested on: A498
ACHN = tested on: ACHN
HCT-116 = tested on: HCT-116
HCT-15 = tested on: HCT-15
HOP-62 = tested on: HOP-62
HT-29 = tested on: HT-29
IGROV-1 = tested on: IGROV-1
LOX IMVI = tested on: LOX IMVI
M14 = tested on: M14
MDA-MB-435 = tested on: MDA-MB-435
NCI-H522 = tested on: NCI-H522
NCI/ADR-RES = tested on: NCI/ADR-RES
OVCAR-3 = tested on: OVCAR-3
OVCAR-5 = tested on: OVCAR-5
OVCAR-8 = tested on: OVCAR-8
SF-268 = tested on: SF-268
SK-MEL-28 = tested on: SK-MEL-28
SK-MEL-2 = tested on: SK-MEL-2
SNB-19 = tested on: SNB-19
SN12C = tested on: SN12C

Row | SMILES | GI50 (A498) | GI50 (ACHN) | GI50 (HCT-116) | GI50 (HCT-15) | GI50 (HOP-62) | GI50 (HT-29) | GI50 (IGROV-1) | GI50 (LOX IMVI) | GI50 (M14) | GI50 (MDA-MB-435) | GI50 (NCI-H522) | GI50 (NCI/ADR-RES) | GI50 (OVCAR-3) | GI50 (OVCAR-5) | GI50 (OVCAR-8) | GI50 (SF-268) | GI50 (SK-MEL-28) | GI50 (SK-MEL-2) | GI50 (SNB-19) | GI50 (SN12C)
1 | CN1CCN(c2ccc3c(c2)NCC(=O)N3)CC1 | > 100 µM (inactive) | > 100 µM (inactive) | > 100 µM (inactive) | > 100 µM | > 100 µM (inactive) | > 100 µM (inactive) | > 100 µM (inactive) | > 100 µM (inactive) | > 100 µM (inactive) | > 100 µM (inactive) | > 100 µM (inactive) | > 100 µM (inactive) | > 100 µM (inactive) | > 100 µM (inactive) | > 100 µM (inactive) | > 100 µM (inactive) | > 100 µM (inactive) | > 100 µM (inactive) | > 100 µM (inactive) | 
2 | CCOC(=O)Cn1nnc2cc(Nc3c(C)[n+]([O-])c4cc(F)c(OCC)cc4[n+]3[O-])ccc21 | > 100 µM (inactive) | 35.9 µM (inactive) | > 100 µM (inactive) | > 100 µM | 27.5 µM (inactive) | > 100 µM (inactive) | 96.2 µM (inactive) | > 100 µM (inactive) | > 100 µM (inactive) | > 100 µM (inactive) | > 100 µM (inactive) | > 100 µM (inactive) | > 100 µM (inactive) | > 100 µM (inactive) | > 100 µM (inactive) | 45.8 µM (inactive) | > 100 µM (inactive) | 32.4 µM (inactive) |  | 
3 | Cn1c(CO)ccc1-c1ccc(-c2ccc(CO)[se]2)[se]1 | 0.023 µM (active) | 19.3 µM (inactive) | 0.859 µM (active) | 9.82 µM | 7.28 µM (inactive) | 37.7 µM (inactive) | 0.0621 µM (active) | 16.2 µM (inactive) | 10.4 µM (inactive) | 3.08 µM (inactive) | 18.8 µM (inactive) | 33.9 µM (inactive) | 2.01 µM (inactive) |  | 6.89 µM (inactive) | > 78.5 µM (inactive) | 17 µM (inactive) | 7.59 µM (inactive) | > 63.4 µM (inactive) | 10.6 µM (inactive)
4 | C=C1C(=O)O[C@@]23C1CC[C@@H](C)C2CC[C@@]1(C)OC31 (stereo partly drawn) | 18.2 µM (inactive) | 12.4 µM (inactive) | 8.65 µM (inactive) | 9.33 µM | 10 µM (inactive) | 5.86 µM (inactive) | 11.7 µM (inactive) | 11.5 µM (inactive) | 3.52 µM (inactive) | 4.25 µM (inactive) | 6.32 µM (inactive) | 16.8 µM (inactive) | 3.27 µM (inactive) | 12.6 µM (inactive) | 16.9 µM (inactive) | 13.7 µM (inactive) | 6.35 µM (inactive) | 5.58 µM (inactive) | 18.6 µM (inactive) | 7.24 µM (inactive)
5 | CC(=O)OC(C)(C)CCC(=O)[C@](C)(O)[C@H]1[C@H](O)C[C@@]2(C)[C@@H]3CC=C4C(C)=C(OC5OC(CO)C(O)C(O)C5O)C(=O)C[C@@H]4[C@]3(C)C(=O)C[C@]12C (stereo partly drawn) | > 100 µM (inactive) | > 100 µM (inactive) | > 100 µM (inactive) | > 100 µM | > 100 µM (inactive) | > 100 µM (inactive) | > 100 µM (inactive) | > 100 µM (inactive) | > 100 µM (inactive) | > 100 µM (inactive) | > 100 µM (inactive) | > 100 µM (inactive) | > 100 µM (inactive) | > 100 µM (inactive) | > 100 µM (inactive) | > 100 µM (inactive) | > 100 µM (inactive) | > 100 µM (inactive) | > 100 µM (inactive) | > 100 µM (inactive)
6 | COc1ccc(-c2oc3cc(OC(C)=O)cc(OC(C)=O)c3c(=O)c2OC)cc1 | 21.7 µM (inactive) | 17 µM (inactive) | 21 µM (inactive) | 20.8 µM | 18.1 µM (inactive) | 16.7 µM (inactive) | 16.2 µM (inactive) | 14.5 µM (inactive) | 14.5 µM (inactive) | 10.4 µM (inactive) | 2.12 µM (inactive) | 14.7 µM (inactive) | 15 µM (inactive) | 23.3 µM (inactive) | 17 µM (inactive) | 15.4 µM (inactive) | 13.7 µM (inactive) |  | 19 µM (inactive) | 
7 | Cc1c2oc3c(C)ccc(C(=O)NC4C(=O)NC(Cc5ccc(O)cc5)C(=O)N5CCCC5C(=O)N(C)CC(=O)N(C)C(C(C)C)C(=O)OC4C)c3nc-2c(C(=O)NC2C(=O)NC(Cc3ccc(O)cc3)C(=O)N3CCCC3C(=O)N(C)CC(=O)N(C)C(C(C)C)C(=O)OC2C)c(N)c1=O (stereo not drawn) (I: TYP[Sar][NMeV] / II: TYP[Sar][NMeV]; ester I:1-I:C, II:1-II:C; linker I:N-II:N via Actinocin(9to1); configuration not given here) | 16 µM (inactive) | 0.397 µM (active) | 0.11 µM (active) | 8.65 µM | 2.33 µM (inactive) | 0.755 µM (active) | 0.149 µM (active) | 0.0859 µM (active) | 2.55 µM (inactive) | 1.93 µM (inactive) | 0.877 µM (active) | > 94 µM (inactive) | 1.63 µM (inactive) | 7.66 µM (inactive) | 0.8 µM (active) | 0.16 µM (active) | 0.365 µM (active) |  | 0.449 µM (active) | 1.48 µM (inactive)
